We go through five molecules from patent US9498463B2, “Compound obtained from gamboge resin, and medical uses of the same” (priority 2010, dated 2016).

The subject of data set [1] is Human breast adenocarcinoma cell MCF7. Put plainly: cells. The note with it: Homo sapiens; for IC50: MCF7, read-out: IC50 (50% inhibition concentration); for CC50: MCF7, read-out: LC50 (50% lethal concentration). An excerpt:
(§1) In Vitro Anti-Cancer Test
(§2) The in vitro anti-cancer test was primarily used to detect the effect of a candidate drug on cancer cell proliferation. The working principle involved therein is the ability of viable cells to shift alamarBlue (AbD Serotec, UK) from its originally non-fluorescent oxidized state (non-fluorescent, blue) to a reduced form (fluorescent, red) having fluorescence via metabolic reaction. According to the fluorescent data result generated by the alamarBlue reagent thus obtained, the proliferation of the viable cells and cell activity can be quantified for detection.
(§3) In the in vitro anti-cancer tests, a candidate drug was tested at 5 different concentrations of 0.01, 0.1, 1, 10, and 100 μg/ml, and six human cancer cell lines and a normal human cell line were used (see Table 5).

In data set [2] the test system is Human hepatocellular carcinoma cell HepG2. Put plainly: cells. The note with it: for IC50: HepG2, read-out: IC50 (50% inhibition concentration); for CC50: HepG2, read-out: LC50 (50% lethal concentration).
Text: as §1, §2, §3

Data set [3] relates to Human umbilical venal epithelial cell (HUVEC). The data set is described as follows: cells. The note with it: Homo sapiens, HUVEC, read-out: IC50 (50% inhibition concentration).
Text: as §1, §2, §3

Data set [4] concerns Human histocytic lymphoma cell U937. Put plainly: cells. The note with it: for IC50: U-937, read-out: IC50 (50% inhibition concentration); for CC50: U-937, read-out: LC50 (50% lethal concentration).
Text: as §1, §2, §3

A further data set in a line: in vitro.
Text: as §1, §2, §3

Data set [5] has as its system Human promyelocytic leukemia cell HL-60. The data set is described as follows: cells. The note with it: for IC50: HL-60, read-out: IC50 (50% inhibition concentration); for CC50: HL-60, read-out: LC50 (50% lethal concentration).
Text: as §1, §2, §3

The test system of data set [6] is Human colon adenocarcinoma cell HT-29. Put plainly: cells. The note with it: for IC50: HT-29, read-out: IC50 (50% inhibition concentration); for CC50: HT-29, read-out: LC50 (50% lethal concentration).
Text: as §1, §2, §3

For data set [7], the system named is Human lung carcinoma cell A549. The data set is described as follows: cells. The note with it: for IC50: A549, read-out: IC50 (50% inhibition concentration); for CC50: A549, read-out: LC50 (50% lethal concentration).
Text: as §1, §2, §3

A further data set concerns caspases. The note with it: cited from earlier work.

In brackets after ≈: the same amount, converted by molar mass.

Take `CC(C)=CCc1c2c(c(O)c3c1O[C@]1(C)CCC4C3C1C4(C)C)C(=O)C1=C[C@@H]3CC4C(C)(C)OC(C/C=C(/C)C(=O)O)(C3=O)[C@@]14O2` [Gh-2607-B]: the IC50 in data set [1] was determined as 0.1 µg/mL (≈ 0.159 µM); in data set [2], 0.31 µg/mL (≈ 0.493 µM); in [3] it was 0.07 µg/mL (≈ 0.111 µM); in data set [4], 0.1 µg/mL (≈ 0.159 µM); in data set [5] it was 0.13 µg/mL (≈ 0.207 µM); in [6] it was 0.3 µg/mL (≈ 0.477 µM). In [7], the IC50 turned out to be 0.1 µg/mL (≈ 0.159 µM). Also, the CC50 in data set [1] stood at 0.68 µg/mL (≈ 1.08 µM); in data set [2], 4 µg/mL (≈ 6.36 µM); in data set [4], 0.25 µg/mL (≈ 0.398 µM); in the data set “in vitro” it was 1.6 µg/mL (≈ 2.54 µM); in data set [5] it was 3.1 µg/mL (≈ 4.93 µM); in data set [6] it was 1 µg/mL (≈ 1.59 µM). In addition, in data set [7], the CC50 amounted to 0.33 µg/mL (≈ 0.525 µM).

For the molecule `C=C(C)C1CC[C@]2(C)C[C@H]1c1c(O)c3c(c(CC=C(C)C)c1O2)O[C@]12C(=C[C@@H]4CC1C(C)(C)O[C@]2(/C=C/C(C)C(=O)O)C4=O)C3=O` (stereo partly drawn) [Gh-2508, 3-butenoic acid, 2-methyl-4-[(1R,3aS,5S,9R,10S,13R,16aS)-3a,4,5,7,10,11,12,13-octahydro-8-hydroxy-3,3,13-trimethyl-15-(3-methyl-2-butenyl)-10-(1-methylethenyl)-7,18-dioxo-1,5:9,13-dimethano-1H,3H,9H-furo[3.4-g]oxocino[3.2-b]xanthen-1-yl]-,(3E)-], the IC50 in data set [1] is 0.087 µg/mL (≈ 0.138 µM); in data set [2], 1.9 µg/mL (≈ 3.02 µM); in data set [3], 0.52 µg/mL (≈ 0.827 µM); in data set [4] it was 0.28 µg/mL (≈ 0.445 µM); in [5], 0.28 µg/mL (≈ 0.445 µM); in data set [6], 1.8 µg/mL (≈ 2.86 µM). Besides, in data set [7], the IC50 amounted to 0.16 µg/mL (≈ 0.254 µM). For the same molecule, the CC50 was 1.7 µg/mL (≈ 2.7 µM) in [1]; 5.9 µg/mL (≈ 9.38 µM) in [2]; 2.2 µg/mL (≈ 3.5 µM) in [4]; 5.4 µg/mL (≈ 8.59 µM) in “in vitro”; 6.6 µg/mL (≈ 10.5 µM) in data set [5]; 5.5 µg/mL (≈ 8.75 µM) in data set [6]. Also, in data set [7], the CC50 amounted to 0.46 µg/mL (≈ 0.732 µM).

Consider `CC(C)=CCC/C(C)=C/Cc1c(O)c(CC=C(C)C)c2c(c1O)C(=O)C1=C[C@@H]3CC4C(C)(C)O[C@](C/C=C(/C)C(=O)O)(C3=O)[C@@]14O2` [Gh-2505, gambogenic acid], for which the IC50 in [1] amounted to 1.9 µg/mL (≈ 3.01 µM); in [2], 2.1 µg/mL (≈ 3.33 µM); in data set [3] it was 0.28 µg/mL (≈ 0.444 µM); in data set [4] it was 1.1 µg/mL (≈ 1.74 µM); in [5] it was 0.75 µg/mL (≈ 1.19 µM); in data set [6] it was 2.1 µg/mL (≈ 3.33 µM). The IC50 in data set [7] was found to be 0.62 µg/mL (≈ 0.983 µM). Further, the CC50 in data set [1] worked out at 19 µg/mL (≈ 30.1 µM); in [2], 6.5 µg/mL (≈ 10.3 µM); in data set [4] it was 3.7 µg/mL (≈ 5.87 µM); in “in vitro”, 2.3 µg/mL (≈ 3.65 µM); in [5], 7.2 µg/mL (≈ 11.4 µM); in [6] it was 4.4 µg/mL (≈ 6.98 µM). Moreover, the CC50 in data set [7] turned out to be 12 µg/mL (≈ 19 µM).

For `CC(C)=CCc1c2c(c(O)c3c1O[C@@]1(C)CCC4C3C1C4(C)C)C(=O)C1=C[C@@H]3CC4C(C)(C)O[C@](C/C=C(/C)C(=O)O)(C3=O)[C@@]14O2` [Gh-2607-1A], the IC50 in data set [1] is 0.12 µg/mL (≈ 0.191 µM); in [2], 0.43 µg/mL (≈ 0.684 µM); in [3], 0.43 µg/mL (≈ 0.684 µM); in data set [4], 0.15 µg/mL (≈ 0.239 µM); in [5], 0.49 µg/mL (≈ 0.779 µM); in [6], 0.24 µg/mL (≈ 0.382 µM). Moreover, the IC50 in data set [7] stood at 0.19 µg/mL (≈ 0.302 µM). Further, the CC50 is 1.5 µg/mL (≈ 2.39 µM) in [1]; 3.9 µg/mL (≈ 6.2 µM) in [2]; 0.37 µg/mL (≈ 0.588 µM) in [4]; 1.5 µg/mL (≈ 2.39 µM) in “in vitro”; 2.6 µg/mL (≈ 4.14 µM) in data set [5]; 0.84 µg/mL (≈ 1.34 µM) in data set [6]. Besides, in data set [7], the CC50 is 0.45 µg/mL (≈ 0.716 µM).

As to `COC(=O)/C(C)=C\CC12OC(C)(C)C3CC(C=C4C(=O)c5c(O)c6c(c(CC=C(C)C)c5OC431)OC(C)(CCC(O)C(C)(C)O)C=C6)C2=O` (stereo not drawn) [methyl 37,38-dihydroxy-gambogate], the “activator of caspases and inducer of apoptosis” value in the data set with caspases was “activator of caspases and an inducer of apoptosis”.
